Measurements taken from ChEMBL document CHEMBL1212772 (2010).
Values after ≈ are worked out from the molar mass of the structure shown.

Assays:
Format in all cases: functional
Acinetobacter baumannii [1] = experiment: Antimicrobial activity against wild type Acinetobacter baumannii OC 16708 deficient in beta-lactamase assessed as inhibition of growth by broth dilution method
Pseudomonas aeruginosa [2] = experiment: Antimicrobial activity against Pseudomonas aeruginosa OC 4083 expressing beta-lactamase OXA-10 and containing Oxacillinase assessed as inhibition of growth by broth dilution method
Klebsiella oxytoca = experiment: Antimicrobial activity against wild type Klebsiella oxytoca OC 4076 expressing Beta-lactamase K1 assessed as inhibition of growth by broth dilution method
Serratia marcescens [3] = experiment: Antimicrobial activity against wild type Serratia marcescens OC 7554 expressing beta-lactamase SME-3 and containing Carbapenemase assessed as inhibition of growth by broth dilution method
Klebsiella pneumoniae [4] = experiment: Antimicrobial activity against wild type Klebsiella pneumoniae OC 15263 expressing beta-lactamase SHV-1 assessed as inhibition of growth by broth dilution method
Escherichia coli [5] = experiment: Antimicrobial activity against Escherichia coli OC 11732 expressing extended-spectrum beta-lactamase CTX-M-15 assessed as inhibition of growth by broth dilution method
Klebsiella pneumoniae [6] = experiment: Antimicrobial activity against Klebsiella pneumoniae OC 4238 overexpressing beta-lactamase SHV-1 assessed as inhibition of growth by broth dilution method
Acinetobacter baumannii [7] = experiment: Antimicrobial activity against Acinetobacter baumannii OC 11738 expressing beta-lactamase OXA-23 and containing Carbapenemase assessed as inhibition of growth by broth dilution method
Pseudomonas aeruginosa [8] = experiment: Antimicrobial activity against Pseudomonas aeruginosa OC 13996 expressing beta-lactamase IMP-1 and containing Carbapenemase assessed as inhibition of growth by broth dilution method
Enterobacter cloacae = experiment: Antimicrobial activity against Enterobacter cloacae OC 4080 overexpressing beta-lactamase AmpC assessed as inhibition of growth by broth dilution method
Pseudomonas aeruginosa [9] = experiment: Antimicrobial activity against wild type Pseudomonas aeruginosa ATCC 27853 expressing beta-lactamase AmpC assessed as inhibition of growth by broth dilution method
Klebsiella pneumoniae [10] = experiment: Antimicrobial activity against Klebsiella pneumoniae OC 5367 expressing beta-lactamase KPC-2 and containing Carbapenemase assessed as inhibition of growth by broth dilution method
Escherichia coli [11] = experiment: Antimicrobial activity against Escherichia coli OC 6697 expressing beta-lactamase CMY-2 and containing plasmid AmpC assessed as inhibition of growth by broth dilution method
Pseudomonas aeruginosa [12] = experiment: Antimicrobial activity against Pseudomonas aeruginosa OC 7052 expressing beta-lactamase VIM-2 and containing Carbapenemase assessed as inhibition of growth by broth dilution method
Klebsiella pneumoniae [13] = experiment: Antimicrobial activity against Klebsiella pneumoniae OC 4094 expressing extended-spectrum Beta-lactamase TEM-26 assessed as inhibition of growth by broth dilution method
Pseudomonas aeruginosa [14] = experiment: Antimicrobial activity against Pseudomonas aeruginosa OC 4352 overexpressing beta-lactamase AmpC assessed as inhibition of growth by broth dilution method
Serratia marcescens [15] = experiment: Antimicrobial activity against wild type Serratia marcescens OC 7555 deficient in beta-lactamase assessed as inhibition of growth by broth dilution method
Pseudomonas aeruginosa [16] = experiment: Antimicrobial activity against Pseudomonas aeruginosa OC 12115 expressing beta-lactamase SPM-1 and containing Carbapenemase assessed as inhibition of growth by broth dilution method
Escherichia coli [17] = experiment: Antimicrobial activity against Escherichia coli DH5-alpha expressing beta-lactamase TEM-1 assessed as inhibition of growth by broth dilution method
Escherichia coli [18] = experiment: Antimicrobial activity against wild type Escherichia coli ATCC 25922 deficient in beta-lactamase assessed as inhibition of growth by broth dilution method

SMILES	MIC (Acinetobacter baumannii [1]) [mg/L]	MIC (Pseudomonas aeruginosa [2]) [mg/L]	MIC (Klebsiella oxytoca) [mg/L]	MIC (Serratia marcescens [3]) [mg/L]	MIC (Klebsiella pneumoniae [4]) [mg/L]	MIC (Escherichia coli [5]) [mg/L]	MIC (Klebsiella pneumoniae [6]) [mg/L]	MIC (Acinetobacter baumannii [7]) [mg/L]	MIC (Pseudomonas aeruginosa [8]) [mg/L]	MIC (Enterobacter cloacae) [mg/L]	MIC (Pseudomonas aeruginosa [9]) [mg/L]	MIC (Klebsiella pneumoniae [10]) [mg/L]	MIC (Escherichia coli [11]) [mg/L]	MIC (Pseudomonas aeruginosa [12]) [mg/L]	MIC (Klebsiella pneumoniae [13]) [mg/L]	MIC (Pseudomonas aeruginosa [14]) [mg/L]	MIC (Serratia marcescens [15]) [mg/L]	MIC (Pseudomonas aeruginosa [16]) [mg/L]	MIC (Escherichia coli [17]) [mg/L]	MIC (Escherichia coli [18]) [mg/L]
C[C@@H](O)[C@H]1C(=O)N2C(C(=O)O)=C(SCCNC=N)C[C@H]12 [IMIPENEM ANHYDROUS]	0.25 (≈ 0.835 µM)	1 (≈ 3.34 µM)	0.25 (≈ 0.835 µM)	> 256	0.5 (≈ 1.67 µM)	0.25 (≈ 0.835 µM)	0.25 (≈ 0.835 µM)	64 (≈ 214 µM)	> 256	1 (≈ 3.34 µM)	2 (≈ 6.68 µM)	16 (≈ 53.4 µM)	0.5 (≈ 1.67 µM)	64 (≈ 214 µM)	0.5 (≈ 1.67 µM)	2 (≈ 6.68 µM)	0.25 (≈ 0.835 µM)	> 256	–	–
CC(C)(O/N=C(\C(=O)N[C@@H]1C(=O)N2C(C(=O)[O-])=C(C[n+]3ccccc3)CS[C@H]12)c1csc(N)n1)C(=O)O [CEFTAZIDIME]	4 (≈ 7.32 µM)	> 4	1 (≈ 1.83 µM)	0.5 (≈ 0.915 µM)	0.12 (≈ 0.22 µM)	32 (≈ 58.5 µM)	2 (≈ 3.66 µM)	> 256	> 256	32 (≈ 58.5 µM)	2 (≈ 3.66 µM)	32 (≈ 58.5 µM)	> 128	64 (≈ 117 µM)	> 256	32 (≈ 58.5 µM)	0.5 (≈ 0.915 µM)	> 256	0.5 (≈ 0.915 µM)	0.25 (≈ 0.457 µM)
C[C@@H](O)[C@H]1C(=O)N2C(C(=O)O)=C(S[C@@H]3CN[C@H](CNS(N)(=O)=O)C3)[C@H](C)[C@H]12 [DORIPENEM]	0.25 (≈ 0.595 µM)	2 (≈ 4.76 µM)	0.06 (≈ 0.143 µM)	128 (≈ 304 µM)	0.06 (≈ 0.143 µM)	0.06 (≈ 0.143 µM)	0.06 (≈ 0.143 µM)	32 (≈ 76.1 µM)	> 256	0.25 (≈ 0.595 µM)	0.5 (≈ 1.19 µM)	8 (≈ 19 µM)	0.06 (≈ 0.143 µM)	32 (≈ 76.1 µM)	0.12 (≈ 0.285 µM)	0.5 (≈ 1.19 µM)	0.06 (≈ 0.143 µM)	> 256	0.06 (≈ 0.143 µM)	0.03 (≈ 0.0713 µM)
C[C@@H](O)[C@H]1C(=O)N2C(C(=O)O)=C(S[C@@H]3CN[C@H](C(=O)N(C)C)C3)[C@H](C)[C@H]12 [MEROPENEM]	0.25 (≈ 0.652 µM)	2 (≈ 5.22 µM)	0.06 (≈ 0.156 µM)	128 (≈ 334 µM)	0.03 (≈ 0.0782 µM)	0.03 (≈ 0.0782 µM)	0.03 (≈ 0.0782 µM)	64 (≈ 167 µM)	> 256	0.25 (≈ 0.652 µM)	0.5 (≈ 1.3 µM)	–	0.06 (≈ 0.156 µM)	32 (≈ 83.4 µM)	0.06 (≈ 0.156 µM)	0.5 (≈ 1.3 µM)	0.03 (≈ 0.0782 µM)	> 256	0.03 (≈ 0.0782 µM)	0.03 (≈ 0.0782 µM)
